From ChEMBL document CHEMBL1275260, “N-acetylcysteine-mediated modulation of bacterial antibiotic susceptibility” (2010)
≈ marks a conversion by molar mass, not a printed value. Calls of active or inactive are those of the source. The rule behind the calls is not given here.

How the values were obtained:
Escherichia coli [1] = test: Antibacterial activity against Escherichia coli W3110; type: functional; details: K-12 substr. W3110
Escherichia coli [2] = test: Antibacterial activity against Escherichia coli W3110 in presence of 10 mM N-Acetylcysteine; type: functional; details: K-12 substr. W3110
Escherichia coli [3] = test: Antibacterial activity against Escherichia coli MG1655; type: functional
Pseudomonas aeruginosa [4] = test: Antibacterial activity against Pseudomonas aeruginosa NCIM 5029; type: functional
Klebsiella pneumoniae = test: Antibacterial activity against Klebsiella pneumoniae NCIM 2883 assessed as growth inhibition in presence of 10 mM N-Acetylcysteine; type: functional, organism-based
Pseudomonas aeruginosa [5] = test: Antibacterial activity against Pseudomonas aeruginosa NCIM 5029 in presence of 10 mM N-Acetylcysteine; type: functional
Escherichia coli [6] = test: Antibacterial activity against Escherichia coli DH5alpha; type: functional; details: DH5[alpha]
Escherichia coli [7] = test: Antibacterial activity against Escherichia coli DH5alpha in presence of 10 mM N-Acetylcysteine; type: functional; details: DH5[alpha]
Klebsiella aerogenes [8] = test: Antibacterial activity against Klebsiella aerogenes NCIM 2281 in presence of 10 mM N-Acetylcysteine; type: functional
Klebsiella aerogenes [9] = test: Antibacterial activity against Klebsiella aerogenes NCIM 2281; type: functional
Escherichia coli [10] = test: Antibacterial activity against Escherichia coli MG1655 in presence of 10 mM N-Acetylcysteine; type: functional

Row | SMILES | MIC (Escherichia coli [1]) | MIC (Escherichia coli [2]) | MIC (Escherichia coli [3]) | MIC (Pseudomonas aeruginosa [4]) | Activity (Klebsiella pneumoniae) | MIC (Pseudomonas aeruginosa [5]) | MIC (Escherichia coli [6]) | MIC (Escherichia coli [7]) | MIC (Klebsiella aerogenes [8]) | MIC (Klebsiella aerogenes [9]) | MIC (Escherichia coli [10])
1 | CN(C)[C@@H]1C(O)=C(C(N)=O)C(=O)[C@@]2(O)C(O)=C3C(=O)c4c(O)cccc4[C@@](C)(O)[C@H]3C[C@@H]12 [TETRACYCLINE] | 0.062 µg/mL (≈ 0.14 µM) | 0.062 µg/mL | 1 µg/mL (≈ 2.25 µM) | 8 µg/mL (≈ 18 µM) | Active | 8 µg/mL | 1 µg/mL (≈ 2.25 µM) | 1 µg/mL | 1 µg/mL | 1 µg/mL (≈ 2.25 µM) | 1 µg/mL
2 | O=C(O)c1cn(C2CC2)c2cc(N3CCNCC3)c(F)cc2c1=O [CIPROFLOXACIN] | – | 0.064 µg/mL | – | 1.02 µg/mL (≈ 3.09 µM) | Active | 2.05 µg/mL | – | – | 0.512 µg/mL | 0.016 µg/mL (≈ 0.0483 µM) | 0.512 µg/mL
3 | CN[C@@H]1[C@H](O)[C@H](NC)[C@H]2O[C@@]3(O)C(=O)C[C@@H](C)O[C@H]3O[C@@H]2[C@H]1O [SPECTINOMYCIN] | 6 µg/mL (≈ 18.1 µM) | 128 µg/mL | 8 µg/mL (≈ 24.1 µM) | 256 µg/mL (≈ 770 µM) | Active | 512 µg/mL | 4 µg/mL (≈ 12 µM) | 4 µg/mL | 128 µg/mL | 8 µg/mL (≈ 24.1 µM) | 256 µg/mL
4 | CC1COc2c(N3CCN(C)CC3)c(F)cc3c(=O)c(C(=O)O)cn1c23 (stereo not given) [OFLOXACIN] | – | 0.032 µg/mL | 0.032 µg/mL (≈ 0.0886 µM) | 0.256 µg/mL (≈ 0.708 µM) | Active | 2.05 µg/mL | – | – | 0.512 µg/mL | 0.064 µg/mL (≈ 0.177 µM) | 1.02 µg/mL
5 | CN[C@@H]1[C@H](O[C@H]2[C@H](O[C@H]3[C@H](O)[C@@H](O)[C@H](N=C(N)N)[C@@H](O)[C@@H]3N=C(N)N)O[C@@H](C)[C@]2(O)C=O)O[C@@H](CO)[C@H](O)[C@H]1O [STREPTOMYCIN] | 2 µg/mL (≈ 3.44 µM) | 16 µg/mL | 2 µg/mL (≈ 3.44 µM) | 8 µg/mL (≈ 13.8 µM) | Active | 64 µg/mL | 1 µg/mL (≈ 1.72 µM) | 1 µg/mL | 16 µg/mL | 2 µg/mL (≈ 3.44 µM) | 32 µg/mL
6 | O=C(N[C@H](CO)[C@H](O)c1ccc([N+](=O)[O-])cc1)C(Cl)Cl [CHLORAMPHENICOL] | 1 µg/mL (≈ 3.09 µM) | 1 µg/mL | 4 µg/mL (≈ 12.4 µM) | 128 µg/mL (≈ 396 µM) | Active | 128 µg/mL | 2 µg/mL (≈ 6.19 µM) | 2 µg/mL | 1 µg/mL | 1 µg/mL (≈ 3.09 µM) | 4 µg/mL
7 | CC1(C)S[C@@H]2[C@H](NC(=O)[C@H](N)c3ccccc3)C(=O)N2[C@H]1C(=O)O [AMPICILLIN] | 8 µg/mL (≈ 22.9 µM) | – | 4 µg/mL (≈ 11.4 µM) | 1020 µg/mL (≈ 2930 µM) | Active | 128 µg/mL | 4 µg/mL (≈ 11.4 µM) | 4 µg/mL | 32 µg/mL | 32 µg/mL (≈ 91.6 µM) | 1 µg/mL
8 | CC[C@H]1OC(=O)[C@H](C)[C@@H](O[C@H]2C[C@@](C)(OC)[C@@H](O)[C@H](C)O2)[C@H](C)[C@@H](O[C@@H]2O[C@H](C)C[C@H](N(C)C)[C@H]2O)[C@](C)(O)C[C@@H](C)C(=O)[C@H](C)[C@@H](O)[C@]1(C)O [ERYTHROMYCIN] | 4 µg/mL (≈ 5.45 µM) | 512 µg/mL | 32 µg/mL (≈ 43.6 µM) | 256 µg/mL (≈ 349 µM) | Active | 1020 µg/mL | 16 µg/mL (≈ 21.8 µM) | 16 µg/mL | 1020 µg/mL | 32 µg/mL (≈ 43.6 µM) | 1020 µg/mL
9 | CC1(C)S[C@@H]2[C@H](NC(=O)Cc3ccccc3)C(=O)N2[C@H]1C(=O)O [PENICILLIN G] | 64 µg/mL (≈ 191 µM) | 64 µg/mL | 64 µg/mL (≈ 191 µM) | > 4100 µg/mL | Active | 2050 µg/mL | – | – | 64 µg/mL | 64 µg/mL (≈ 191 µM) | 64 µg/mL
10 | NC[C@H]1O[C@H](O[C@H]2[C@H](O)[C@@H](O[C@H]3O[C@H](CO)[C@@H](O)[C@H](N)[C@H]3O)[C@H](N)C[C@@H]2N)[C@H](O)[C@@H](O)[C@@H]1O [KANAMYCIN] | 1 µg/mL (≈ 2.06 µM) | 16 µg/mL | 1 µg/mL (≈ 2.06 µM) | 64 µg/mL (≈ 132 µM) | Active | 256 µg/mL | 0.5 µg/mL (≈ 1.03 µM) | 0.5 µg/mL | 16 µg/mL | 1 µg/mL (≈ 2.06 µM) | 32 µg/mL
